Test results as given in PubChem BioAssay (NCI).
Several values for one entry are separate records, joined by “and”; a condition that tells them apart may be missing. Equal values may be shown once.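 Interpolation was linear, between the two tested concentrations surrounding the appropriate level; five concentrations were tested over 48 hours in 96-well plates. Abbreviation: GI50, concentration required for 50% inhibition of growth. TGI: concentration producing complete growth inhibition.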

How the values were obtained:
Experiment in all cases: inhibition of tumour cell growth, NCI panel, 48 h
[1] = tested on: CAKI-1 renal
[2] = tested on: HCT-15 colon
[3] = tested on: IGROV1 ovarian
[4] = tested on: NCI-H460 lung
[5] = tested on: SN12C renal
[6] = tested on: SNB-19 CNS
[7] = tested on: LOX IMVI melanoma
[8] = tested on: MDA-MB-435
[9] = tested on: SW-620 colon
[10] = tested on: U251 CNS

SMILES	TGI [1]	TGI [2] [µM]	TGI [3]	TGI [4] [µM]	TGI [5]	TGI [6]	TGI [7] [µM]	TGI [8] [µM]	TGI [9] [µM]	TGI [10]	GI50 [6]
CC(=O)Nc1nc2c(=O)c3ccccc3sc2s1	> 100 µM	> 100	> 100 µM	> 100	> 100 µM	> 100 µM	–	–	–	–	–
C[C@H]1CCC/C=C/[C@@H]2C[C@H](OC(=O)CN(C)C)C[C@H]2[C@H](O)/C=C/C(=O)O1	> 44.9 µM	5.54	> 29.7 µM	4.05	6.45 µM	> 100 µM	0.219	> 100	4.53	> 100 µM	–
Cc1cn([C@H]2C[C@@H](N3C(=O)c4ccccc4C3=O)[C@@H](CO[Si](C)(C)C(C)(C)C)O2)c(=O)[nH]c1=O	> 100 µM	> 100	> 100 µM	> 100	> 100 µM	> 100 µM	> 100	> 100	> 100	> 100 µM	–
Clc1ccc(C(OCn2ccnc2)c2nc3ccccc3[nH]2)c(Cl)c1 (configuration not stated)	> 100 µM	> 100	> 100 µM	> 100	> 100 µM	> 100 µM	> 100	> 100	> 100	> 100 µM	–
Cc1nc2ccc(S(=O)(=O)O)cc2c(=O)n1-c1ccc(C(=O)NN2C(=O)C(Cl)C2c2cccs2)cc1 (configuration not stated)	> 100 µM	> 100	–	> 100	> 100 µM	> 100 µM	> 100	89.8	> 100	> 100 µM	–
COC(=O)/C(=N\N)C(C(=O)C(=O)Nc1cc(Cl)ccc1Cl)c1nc2ccc([N+](=O)[O-])cc2[nH]c1=O (configuration not stated)	> 100 µM	> 100	> 100 µM	> 100	> 100 µM	–	> 100	> 100	> 100	> 100 µM	–
COC(=O)C(=O)C(C(=O)C(=O)Nc1cccc(OC)c1)c1nc2ccc(Cl)cc2[nH]c1=O (configuration not stated)	> 100 µM	> 100	> 100 µM	> 100	> 100 µM	> 100 µM	> 100	> 100	> 100	> 100 µM	–
CCCCCC(=O)OC[n+]1cccc(-c2c(COC(=O)NC(C)C)c(COC(=O)NC(C)C)c3n2CCC3)c1	> 53.9 µM	> 100	> 100 µM	> 100	> 100 µM	> 100 µM	> 100	> 100	> 100	> 100 µM	–
O=C(O)CCC(NC(=O)c1ccc(Nc2nc3ccc(C(F)(F)F)cc3nc2C(=O)O)cc1)C(=O)O (configuration not stated)	–	> 100	> 100 µM	–	> 100 µM	> 100 µM	> 100	> 100	> 100	> 100 µM	–
O=C(OC1OC2COC(=O)c3cc(O)c(O)c(O)c3-c3c(cc(O)c(O)c3O)C(=O)OC3C2OC(=O)[C@@]24CC(=O)[C@@](O)(OC25C(=O)O[C@H]2[C@@H](O)CO[C@@]25O)C2(O)Oc5c(O)c(O)cc(c5C24)C(=O)OC13)c1cc(O)c(O)c(O)c1 (some centres not stated)	32.1 µM	> 100	> 100 µM	> 100	> 100 µM	> 100 µM	25.1	33	> 100	> 100 µM	–
C/C=C(/CCC1NCCc2c1[nH]c1ccccc21)[Si](C)(C)C (configuration not stated)	> 100 µM and 18.3 µM	18.5	> 100 µM and 21.1 µM	–	> 100 µM and 16.9 µM	> 100 µM and 27.3 µM	15.2	–	–	> 100 µM and 13.6 µM	> 100 µM and 13.9 µM
CC(C)(C)n1c(=O)n2c(-c3ccccc3)c(-c3ccccc3)n2c1=O	> 100 µM	> 100	> 100 µM	> 100	> 100 µM	> 100 µM	> 100	> 100	> 100	> 100 µM	–
CC1OC(OC2C(OC(=O)[C@]34CCC(C)(C)C[C@H]3C3=CC[C@@H]5[C@@]6(C)CC[C@H](OC7OC(CO)C(O)C(O)C7OC7OC(CO)C(O)C(O)C7O)C(C)(C)[C@@H]6CC[C@@]5(C)[C@]3(C)CC4)OCC(O)C2O)C(O)C(O)C1OC1OCC(O)C(O)C1O (some centres not stated)	18.3 µM	32.1	44.9 µM	> 67.4	9.27 µM	28.9 µM	37.7	7.34	39.4	29.2 µM	–
CCOc1ccc(OP2(=O)NC(=O)C=C(C)N2)cc1 (configuration not stated)	> 100 µM	> 100	> 100 µM	> 100	> 100 µM	> 100 µM	> 100	–	> 100	> 100 µM	–
C=CCN(c1cc(O)c2c(c(C)cn2S(=O)(=O)c2ccccc2)c1[N+](=O)[O-])S(C)(=O)=O	> 100 µM	> 100	> 100 µM	> 100	> 100 µM	> 100 µM	> 100	74.7	> 100	> 100 µM	–
Cc1ccc2c(=O)cc(-c3cc(C)sc3C)[nH]c2n1	> 100 µM	> 100	> 100 µM	> 100	> 93.4 µM	> 100 µM	> 58.8	2.86	19.4	> 100 µM	–
c1ccc(C(NC2=NCCO2)C2CC2)cc1 (configuration not stated)	–	> 100	> 100 µM	> 100	> 100 µM	> 100 µM	> 100	> 100	> 100	> 100 µM	–
COC(=O)N/N=c1\cc(C(=O)Nc2ccc(C)c(C)c2)oc2cc(O)ccc12	> 100 µM	> 100	> 100 µM	> 100	> 100 µM	> 100 µM	> 100	–	> 100	> 100 µM	–
Cc1nc2ccccc2n1Cc1nnc(-c2ccccc2)o1	–	> 100	> 100 µM	> 100	> 100 µM	> 100 µM	> 100	0.692	> 100	> 100 µM	–
CCCCCCCCCCCCCCCCOP(=O)([O-])OCC[N+](C)(C)C1CC(C)(C)N(O)C(C)(C)C1	> 100 µM	> 100	–	> 100	–	> 100 µM	–	> 100	> 100	> 100 µM	–
C/C=C1/C=CC2c3[nH]c4ccccc4c3CCN2C1 (configuration not stated)	> 400 µM	> 400	> 400 µM	> 400	> 400 µM	> 400 µM	> 400	–	> 400	> 400 µM	–
